The values below come from ChEMBL document CHEMBL1147776, “1-[4-(1H-Benzoimidazol-2-yl)-phenyl]-3-[4-(1H-benzoimidazol-2-yl)-phenyl]-urea derivatives as small molecule heparanase inhibitors” (Bioorg Med Chem Lett, 2006).

The test system of one data set is Mus musculus. The data set can be described thus: Inhibition of lung metastasis in C57 mice injected with B16-BL6 melanoma cells at 30 mg/kg, ip. Type of data set: functional. Particulars: route intraperitoneal.
A further data set has as its system B16. The data set can be described thus: Inhibition of proliferation on B16-BL6 melanoma cells at 100 uM. Type of data set: functional. Particulars: Mus musculus.
Data set [1] is described as follows: Plasma concentration in mice after 1 hour of ip administration. Type of data set: ADME, organism-based. The settings on record: mouse.
Data set [2] in a line: Plasma concentration in mice after 4 hours of ip administration. The class given is ADME, organism-based. The settings on record: mouse.

A value given as a limit tells only on which side of the number the result lay.

For orientation: inhibition in vivo means how much of the control response was suppressed. What is called inhibition is the relative decrease from the control value, in per cent. Read a high inhibition as a response far below the control. Consider `O=C(Nc1ccc(-c2nc3ccccc3[nH]2)cc1)Nc1ccc(-c2nc3ccccc3[nH]2)cc1`, for which 30 mg/kg produced 50% inhibition in vivo with Mus musculus. The same compound showed an inhibition at 100 µM in the data set with B16 of less than 50%. In data set [1], this compound registered a concentration at 1 h of 31 µM. Also, in data set [2], the concentration at 4 h came to 23 µM.
